According to ChEMBL document CHEMBL4699637, “Glycosylated Phenols and an Unprecedented Diacid from the Saudi Plant Cissus rotundifolia” (J Nat Prod, 2020):
pEC50: −log10 of the molar value. Activity calls are given as the source filed them. The calls are words filed in the database; no cut-off is given here.

Columns and labels:
Huh-7 = assay: Activation of glucose transporter in human Huh-7 cells assessed as increase in glucose uptake at 800 ug/ml preincubated for 30 mins followed by […] addition and measured after 45 mins by fluorescence assay; type: cell-based; conditions: dose 800.0 µg/ml, time 75.0 min
[1] = Activation of glucose transporter in human Huh-7 cells assessed as increase in glucose uptake preincubated for 30 mins followed by 2-NDBG addition and measured after 45 mins by fluorescence assay

Structure (SMILES)	Activity (Huh-7)	fold change (FC) (Huh-7; filed as activator)	pEC50 [1]
CC(/C=C/C(=O)O)=C\C=C\C[C@H](O[C@@H]1O[C@H](CO)[C@@H](O)[C@H](O)[C@H]1O)[C@H](C)CC(=O)O	inactive		
O=C(/C=C/c1ccc(O)cc1)O[C@@H]1O[C@H](CO)[C@@H](O)[C@H](O)[C@H]1O		2	5.11
O=c1cc(-c2ccc(O)cc2)oc2c([C@@H]3O[C@H](CO)[C@@H](O)[C@H](O)[C@H]3O[C@@H]3O[C@H](CO)[C@@H](O)[C@@H]3O)c(O)cc(O)c12	inactive		
O=C(O)/C=C\c1ccc(O[C@@H]2O[C@H](CO)[C@@H](O)[C@H](O)[C@H]2O)cc1	inactive		
O=c1cc(-c2ccc(O)c(O)c2)oc2c([C@@H]3O[C@H](CO)[C@@H](O)[C@H](O)[C@H]3O[C@@H]3O[C@H](CO)[C@@H](O)[C@@H]3O)c(O)cc(O)c12	inactive		
O=c1cc(-c2ccc(O)cc2)oc2cc(O)c([C@@H]3O[C@H](CO)[C@@H](O)[C@H](O)[C@H]3O[C@@H]3O[C@H](CO)[C@@H](O)[C@H](O)[C@H]3O)c(O)c12	inactive		
O=C1OC[C@H]2O[C@@](CO)(O[C@H]3O[C@H](COC(=O)[C@H]4[C@H]1[C@@H](c1ccc(O)cc1)[C@@H]4c1ccc(O)cc1)[C@@H](O)[C@H](O)[C@H]3O)[C@@H](O)[C@@H]2O	inactive		
